In patent publication US9073863B2, “Cyanoquinoline compounds having activity in correcting mutant-CFTR processing and increasing ion transport and uses thereof” (The Regents of the University of California, priority 2011, dated 2015):
One block for each compound: values may come before it.

Experiments:
ΔF508-CFTR [1] = biological target: T1, ΔF508-CFTR (Homo sapiens, UniProt P13569, DEL508-508); assay: Corrector assay, YFP fluorescence plate reader iodide influx in ΔF508-CFTR expressing FRT cells; format: cell-based; conditions: for corrector and potentiator activities, in words: concentration-dependence in corrector and potentiator I− influx assays (FIG. 2, FIG. 7); for corrector activity, comparison in words: propylene tether, methoxy position on arylamide; for Corrector Vmax / EC50 / Corrector EC50: 18-24 h with compound at 37° C., forskolin 20 μM + genistein 50 μM
T1 construct: expressed in transfected cells; host or cells: Fischer rat thyroid (FRT) epithelial cells, stably transfected
Description: (§1) Screening procedures. Screening of compounds for activity was carried out using a Beckman Coulter platform equipped with FLUOstar fluorescence plate readers (Optima; BMG Labtech) with dual syringe pumps and 500±10 nm excitation and 535±15 nm emission filters (Chroma Corp.). For the corrector assay, FRT cells were grown at 37° C./5% CO2 for 18-24 h and then incubated for 18-24 h with 100 μL of medium containing test compounds (25 μM final concentration). At the time of the assay, cells were washed with PBS and then incubated for 10 min with PBS containing forskolin (20 μM) and genistein (50 μM). For the potentiator assay, FRT cells were grown at 37° C./5% CO2 for 18-24 h and then for 18-24 h at 27° C. At the time of the assay, cells were washed with PBS and then incubated for 10 min with PBS (50 μL) containing forskolin (20 μM) and test compound (0-25 μM final concentration). For both the corrector and potentiator assays, each well was assayed individually for I^− influx by recording fluorescence continuously (200 ms per point) for 2 s (baseline) and then for 12 s after rapid addition of 165 μL PBS in which 137 mM Cl^− was replaced by I^−. Initial I^− influx rate was computed by fitting the final 11.5 seconds of the data to an exponential for extrapolation of initial slope, which was normalized for background-subtracted initial fluorescence. All compound plates contained negative controls and positive controls (10 μM Corr-4a for corrector assay; 50 μM genistein for potentiator assay).
(§2) Screening of about 110,000 small molecules was done to identify new ΔF508-CFTR corrector scaffolds having high correction efficiency and/or having independent potentiator activity. […] FRT cells co-expressing human ΔF508-CFTR and a halide-sensing YFP were incubated with test compounds at 37° C. (corrector assay) or 27° C. (potentiator assay). ΔF508-CFTR function was assayed in a plate reader from YFP fluorescence quenching in response to iodide addition in the presence of forskolin (20 μM) plus genistein (50 μM) for corrector assay, or forskolin (20 μM) alone for potentiator assay. As shown in FIG. 1A (left), primary screening for corrector activity was done using a cell-based fluorescence assay of iodide influx in which FRT cells expressing ΔF508-CFTR and an iodide-sensitive YFP were incubated with test compounds at 10 μM for 18-24 h prior to assay. Iodide influx was measured by addition of extracellular iodide in the presence of a potentiator (50 μM genistein) and cAMP agonist (20 μM forskolin). Compound efficacy and potency (from concentration-dependence studies) in the corrector assay were compared to reference bithiazole Corr-4a (10 μM) and to low-temperature rescued cells. Active compounds were counter-screened for potentiator activity (FIG. 1A, right) in which iodide influx was measured in the ΔF508-CFTR expressing FRT cells after low-temperature rescue and in the presence of 20 μM forskolin.
(§3) Screening procedures. Plate reader activity assay was carried out using a Beckman Coulter platform containing a robotic arm, CO2 incubator containing microplate carousel, plate-washer, liquid handling work station, bar code reader, de-lidding station, plate sealer, and FLUOstar fluorescence plate readers (Optima; BMG LABTECH Gmbh), equipped with dual syringe pumps and 500±10 nm excitation and 535±15 nm emission filters (Chroma Corp.). For the corrector assay, ΔF508-CFTR-expressing FRT cells were grown at 37° C. (90% humidity; 5% CO2) for 18-24 h and then incubated for 18-24 h with 100 μL of medium containing test compounds (0-25 μM final concentration). At the time of the assay, cells were washed with PBS and then incubated for 10 min with PBS containing forskolin (20 μM) and genistein (50 μM). For the potentiator assay, FRT cells were grown at 37° C. (90% humidity; 5% CO2) for 18-24 h and then for 18-24 h at 27° C. […]

ΔF508-CFTR [2] = biological target: T1, ΔF508-CFTR; assay: Potentiator assay, YFP fluorescence plate reader iodide influx in low-temperature rescued ΔF508-CFTR expressing FRT cells; format: cell-based
Description: as §1, §2, §3

[3] = Table IX, additional experiments
[4] = Table IX, additional experiments, 18-24 h at 27° C., forskolin 20 μM + test compound
[5] = Table VIII, FRT cells, I− influx
[6] = Table VIII, FRT cells 18-24 h at 27° C., forskolin 20 μM + test compound, I− influx

T1 sequence (P13569 with tags, fused parts or gaps DEL508-508): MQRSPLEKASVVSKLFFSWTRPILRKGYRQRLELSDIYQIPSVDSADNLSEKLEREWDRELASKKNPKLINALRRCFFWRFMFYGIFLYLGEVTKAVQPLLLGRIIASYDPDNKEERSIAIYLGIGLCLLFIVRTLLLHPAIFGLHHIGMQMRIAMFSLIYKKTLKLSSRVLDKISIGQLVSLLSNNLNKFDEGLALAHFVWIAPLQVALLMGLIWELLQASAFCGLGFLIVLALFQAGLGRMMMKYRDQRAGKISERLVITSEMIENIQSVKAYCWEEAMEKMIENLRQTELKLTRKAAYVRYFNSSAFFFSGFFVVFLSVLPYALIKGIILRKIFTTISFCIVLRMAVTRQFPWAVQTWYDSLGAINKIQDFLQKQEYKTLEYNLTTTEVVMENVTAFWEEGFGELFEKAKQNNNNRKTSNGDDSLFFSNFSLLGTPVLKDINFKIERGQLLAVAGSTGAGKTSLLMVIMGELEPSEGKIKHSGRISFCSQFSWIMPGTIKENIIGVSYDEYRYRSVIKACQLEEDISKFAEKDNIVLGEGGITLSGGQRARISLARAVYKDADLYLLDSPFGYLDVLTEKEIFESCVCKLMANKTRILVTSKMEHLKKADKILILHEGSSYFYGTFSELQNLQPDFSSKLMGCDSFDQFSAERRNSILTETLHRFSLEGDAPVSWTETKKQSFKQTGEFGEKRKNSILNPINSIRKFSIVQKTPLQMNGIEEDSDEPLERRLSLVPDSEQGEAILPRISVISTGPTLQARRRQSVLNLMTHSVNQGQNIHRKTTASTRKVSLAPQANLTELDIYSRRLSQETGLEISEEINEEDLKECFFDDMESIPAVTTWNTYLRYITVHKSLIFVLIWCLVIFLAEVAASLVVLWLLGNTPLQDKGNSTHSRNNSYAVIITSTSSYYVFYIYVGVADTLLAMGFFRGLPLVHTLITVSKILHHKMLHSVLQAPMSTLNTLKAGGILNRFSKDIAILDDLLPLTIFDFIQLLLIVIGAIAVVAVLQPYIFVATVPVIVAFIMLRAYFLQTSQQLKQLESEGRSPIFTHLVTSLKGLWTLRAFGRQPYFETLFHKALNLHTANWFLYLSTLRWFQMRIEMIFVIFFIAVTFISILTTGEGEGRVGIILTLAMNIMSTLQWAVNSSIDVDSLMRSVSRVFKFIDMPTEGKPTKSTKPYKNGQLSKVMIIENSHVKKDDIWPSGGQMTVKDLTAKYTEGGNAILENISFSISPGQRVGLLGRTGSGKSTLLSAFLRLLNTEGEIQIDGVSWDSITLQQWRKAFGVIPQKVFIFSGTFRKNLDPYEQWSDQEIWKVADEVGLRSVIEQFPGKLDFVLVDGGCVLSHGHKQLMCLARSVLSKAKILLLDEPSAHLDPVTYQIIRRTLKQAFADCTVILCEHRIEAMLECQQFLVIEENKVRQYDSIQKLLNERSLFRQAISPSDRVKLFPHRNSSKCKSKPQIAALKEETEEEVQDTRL

- Corrector Vmax (ΔF508-CFTR [1]; [3]): 300 µM/s
- EC50 (ΔF508-CFTR [1]; [3]): 2.2 ± 0.3 µM
- EC50 (ΔF508-CFTR [2]; [4]): 5.9 ± 0.5 µM
- Potentiator Vmax (ΔF508-CFTR [2]; [4]): 216 µM/s
SMILES: COc1cccc(C(=O)NCCNc2nc3cc(C)cc(C)c3cc2C#N)c1 [drawing 164]

- Corrector Vmax (ΔF508-CFTR [1]; [5]): 172 µM/s
- EC50 (ΔF508-CFTR [1]; [5]): 9.1 µM
- Potentiator Vmax (ΔF508-CFTR [2]; [6]): 220 µM/s
SMILES: Cc1cc(C)c2cc(C#N)c(NCCNC(=O)c3ccncc3)nc2c1 [drawing 151]

- Corrector Vmax (ΔF508-CFTR [1]; [5]): 223 µM/s
- EC50 (ΔF508-CFTR [1]; [5]): 3.8 µM
- EC50 (ΔF508-CFTR [2]; [6]): 15 µM
- Potentiator Vmax (ΔF508-CFTR [2]; [6]): 250 µM/s
SMILES: COc1ccc(C(=O)NCCNc2nc3c(C)cccc3cc2C#N)cc1OC [drawing 137]

- Corrector EC50 (ΔF508-CFTR [1]; [3]): inactive
- Corrector Vmax (ΔF508-CFTR [1]; [3]): inactive
- Potentiator Vmax (ΔF508-CFTR [2]; [4]): 200 µM/s
SMILES: COc1cccc(C(=O)N2CCN(c3nc4cc(C)cc(C)c4cc3C#N)CC2)c1 [drawing 171]

- Corrector EC50 (ΔF508-CFTR [1]; [5]): inactive
- Corrector Vmax (ΔF508-CFTR [1]; [5]): inactive
- EC50 (ΔF508-CFTR [2]; [6]): 16 µM
- Potentiator Vmax (ΔF508-CFTR [2]; [6]): 115 µM/s
SMILES: Cc1cc(C)c2cc(C#N)c(NCCCNC(=O)c3cccnc3)nc2c1 [drawing 162]

- Corrector Vmax (ΔF508-CFTR [1]; [3]): 151 µM/s
- EC50 (ΔF508-CFTR [1]; [3]): 2.7 ± 0.6 µM
- EC50 (ΔF508-CFTR [2]; [4]): 13.2 ± 0.6 µM
- Potentiator Vmax (ΔF508-CFTR [2]; [4]): 242 µM/s
SMILES: Cc1cc(C)c2cc(C#N)c(NCCNC(=O)c3cccnc3)nc2c1 [drawing 168]

- Corrector EC50 (ΔF508-CFTR [1]; [3]): inactive
- Corrector Vmax (ΔF508-CFTR [1]; [3]): inactive
- EC50 (ΔF508-CFTR [2]; [4]): 1.2 ± 0.4 µM
- Potentiator Vmax (ΔF508-CFTR [2]; [4]): 80 µM/s
SMILES: Cc1cc(C)c2cc(C#N)c(NCCNC(=O)c3ccccn3)nc2c1 [drawing 167]

- EC50 (ΔF508-CFTR [2]; [6]): 6.1 µM
- Potentiator Vmax (ΔF508-CFTR [2]; [6]): 233 µM/s
SMILES: Cc1cc(C)c2cc(C#N)c(NCCCNC(=O)c3ccccn3)nc2c1 [drawing 161]

- Corrector EC50 (ΔF508-CFTR [1]; [5]): inactive
- Corrector Vmax (ΔF508-CFTR [1]; [5]): inactive
SMILES: Cc1cc(C)c2cc(C#N)c(NCCCNC(=O)c3ccncc3)nc2c1 [drawing 163]

- potentiator activity, in words (ΔF508-CFTR [2]; piperazine ring in place of diamino ethylene tether): significant potentiator activity
SMILES: COc1cccc(C(=O)N2CCN(c3nc4cc(C)cc(C)c4cc3C#N)CC2)c1 [Compound AW2]

- Potentiator EC50 (ΔF508-CFTR [2]; [6]): inactive
- Potentiator Vmax (ΔF508-CFTR [2]; [6]): inactive
SMILES: Cc1cc(C)c2cc(C#N)c(N3CCN(C(=O)c4cccnc4)CC3)nc2c1 [drawing 156]

The remaining lines, values behind:

SMILES: CCOc1ccccc1NC(=S)NCCNc1nc2c(C)cccc2cc1C#N [Compound 14]
- corrector and potentiator activities, in words (ΔF508-CFTR [1]): potentiator-only activity

SMILES: COc1cccc(C(=O)NCCCNc2nc3cc(C)cc(C)c3cc2C#N)c1 [Compound AW8]
- corrector activity, comparison in words (ΔF508-CFTR [1]): greater corrector activity than Compound AW7

SMILES: Cc1cc(C)c2cc(C#N)c(NCCNC(=O)c3ccccc3)nc2c1
- Corrector Vmax (ΔF508-CFTR [1]; [3]): inactive
- EC50 (ΔF508-CFTR [2]; [4]): 10 ± 2 µM
- Potentiator Vmax (ΔF508-CFTR [2]; [4]): 210 µM/s

SMILES: COc1ccc(C(=O)NCCNc2nc3cc(C)cc(C)c3cc2C#N)cc1OC [Compound 103]
- corrector and potentiator activities, in words (ΔF508-CFTR [1]): both corrector and potentiator activities

SMILES: COc1ccc(C(=O)NCCNc2nc3cc(C)cc(C)c3cc2C#N)nc1 [Compound 110]
- corrector and potentiator activities, in words (ΔF508-CFTR [1]): both corrector and potentiator activities

SMILES: COc1ccc(C(=O)NCCNc2nc3ccc(C)cc3cc2C#N)cc1OC [Compound 02]
- corrector and potentiator activities, in words (ΔF508-CFTR [1]): corrector and potentiator activities comparable to those of Compound 22

SMILES: COc1ccc(S(=O)(=O)N2CCN(c3nc4ccc(C)cc4cc3C#N)CC2)cc1 [Compound 05]
- corrector and potentiator activities, in words (ΔF508-CFTR [1]): dual activities

SMILES: COc1ccc(C(=O)NCCCNc2nc3cc(C)cc(C)c3cc2C#N)cc1 [Compound AW9]
- corrector activity, comparison in words (ΔF508-CFTR [1]): greater corrector activity than Compound AW7

SMILES: Cc1cc(C)c2cc(C#N)c(NCCNC(=O)c3cccnc3)nc2c1 [Compound CP5]
- corrector and potentiator activities, in words (ΔF508-CFTR [1]): both corrector and potentiator activities
